From PubChem BioAssay AID493105 (The Scripps Research Institute Molecular Screening Center, 2011) come the findings set out here.

What all share (assay): LYPLA1 and LYPLA2 inhibitors, biochemical, gel-based ABPP, fluorescence, recombinant and endogenous enzyme (AID 493105)
For one assay, the system named is emLYPLA2. As to conditions: fluorescent probe labeling, membrane fraction, at 20 µM, stronger effect = higher value.
In another assay the test system is rhLYPLA1. As to conditions: fluorescent probe labeling, soluble fraction, at 20 µM, stronger effect = higher value.
A further assay deals with rhLYPLA2. Conditions: fluorescent probe labeling, membrane fraction, at 20 µM, stronger effect = higher value.
A further assay deals with emLYPLA1. Conditions: fluorescent probe labeling, membrane fraction, at 20 µM, stronger effect = higher value.

Activity calls are given as the source filed them. How the calls were made is not given here.

Take `CC(=O)N1CCC2(CC1)C/C(=N\NC(=S)Nc1ccccc1C)c1cc(O)ccc1O2`: the inhibition in the assay on emLYPLA2 was 5% (inactive); in the assay with rhLYPLA1, 0% (inactive); in the assay with rhLYPLA2 it was 3% (inactive); with emLYPLA1 it was 2% (inactive).
In the same order, the values of `O=[N+]([O-])c1ccc(N2CCC(=NOCc3ccc(Cl)cc3)CC2)cc1` are 13% (inactive), 22% (inactive), 0% (inactive) and 12% (inactive).
`COc1ccc(N2CCN(C(=O)CNC(=O)c3cn(-c4ccccc4OC)c(=O)c4ccccc34)CC2)cc1`: the inhibition in the assay with emLYPLA2 was 34%; in the assay with rhLYPLA1, 0% (inactive); with rhLYPLA2, 26% (inactive); in the assay on emLYPLA1, 15% (inactive).
For `O=C(COc1ccc(Cl)cc1)N1CCN(c2ccc([N+](=O)[O-])c(N3CCOCC3)c2)CC1`, the inhibition was 0% (inactive) in the assay on emLYPLA2, 47% in the assay on rhLYPLA1, 3% (inactive) in the assay with rhLYPLA2 and 0% (inactive) with emLYPLA1.
With `O=C1N=C(N2CCN(Cc3ccccc3)CC2)S/C1=C/c1cccs1`, the inhibition was 0% (inactive) in the assay on emLYPLA2, 0% (inactive) in the assay on rhLYPLA1, 2% (inactive) in the assay on rhLYPLA2 and 4% (inactive) with emLYPLA1.
As to `CC(=O)c1ccc(N2CCN(C(=O)c3ccc(C(=O)c4ccccc4)cc3)CC2)cc1`, the inhibition in the assay on emLYPLA2 is 0% (inactive); with rhLYPLA1 it was 0% (inactive); in the assay on rhLYPLA2 it was 2% (inactive); in the assay with emLYPLA1, 13% (inactive).
In the case of `O=c1ccc2ccc(Oc3ccc([N+](=O)[O-])cc3Cl)cc2o1`, the inhibition with emLYPLA2 was 17% (inactive); in the assay on rhLYPLA1 it was 0% (inactive); in the assay on rhLYPLA2, 6% (inactive); in the assay on emLYPLA1, 0% (inactive).
On to `CC(=O)c1ccc(N2CCN(C(=O)c3cccc(Oc4ccccc4)c3)CC2)cc1`, for which the inhibition in the assay on emLYPLA2 is 0% (inactive); with rhLYPLA1 it was 29% (inactive); with rhLYPLA2, 12% (inactive); with emLYPLA1, 0% (inactive).
As for `O=[N+]([O-])c1cccc(/C=N/N2CCN(Cc3ccc(Cl)cc3)CC2)c1`, the inhibition with emLYPLA2, in the assay with rhLYPLA1, in the assay with rhLYPLA2 and in the assay on emLYPLA1 was 0% (inactive) throughout.
Consider `O=C(CN1CCN(C(=O)c2ccco2)CC1)Nc1cc(Cl)ccc1Cl`, for which the inhibition with emLYPLA2 is 0% (inactive); with rhLYPLA1, 60%; in the assay on rhLYPLA2 it was 0% (inactive); in the assay on emLYPLA1, 37%.
For the molecule `Clc1ccc(C(c2ccc(Cl)cc2)n2cc[n+](CC(OCc3ccc(Cl)cc3Cl)c3ccc(Cl)cc3Cl)c2)cc1` (centres undefined), the inhibition in the assay with emLYPLA2, in the assay on rhLYPLA1, with rhLYPLA2 and with emLYPLA1 was 0% (inactive) in each case.
In the case of `COc1ccc(OC)c(NC(=O)C2CCC(CNc3c(N4CCC(C)CC4)c(=O)c3=O)CC2)c1` (centres undefined), the inhibition with emLYPLA2 is 3% (inactive); with rhLYPLA1, 27% (inactive); with rhLYPLA2 it was 7% (inactive); in the assay with emLYPLA1, 2% (inactive).
Take `Cc1ccc(C)c(C(=O)CCC(=O)N2CCN(c3cccc(C(F)(F)F)c3)CC2)c1`: the inhibition in the assay with emLYPLA2 is 4% (inactive); with rhLYPLA1 it was 31%; in the assay with rhLYPLA2 it was 0% (inactive); with emLYPLA1, 4% (inactive).
As to `O=C(CCCCn1c(=O)[nH]c2ccccc2c1=O)N1CCN(c2cccc(C(F)(F)F)c2)CC1`, the inhibition with emLYPLA2, in the assay with rhLYPLA1, in the assay on rhLYPLA2 and with emLYPLA1 was 0% (inactive) each time.
Regarding `CC(=O)N1CCN(c2ccc(NC(=S)NC(=O)c3ccc(C)c([N+](=O)[O-])c3)cc2)CC1`, the inhibition with emLYPLA2 is 14% (inactive); in the assay with rhLYPLA1, 17% (inactive); with rhLYPLA2 it was 5% (inactive); in the assay on emLYPLA1 it was 0% (inactive).
The matching figures for `O=C(CN1CCN(C(=O)c2ccco2)CC1)Nc1cc(C(F)(F)F)ccc1Cl`: 13% (inactive), 78%, 0% (inactive) and 60%.
On to `Cc1ccc(OCC(=O)N2CCN(C(=O)CCC3CCCC3)CC2)cc1`, for which the inhibition is 14% (inactive) with emLYPLA2, 43% in the assay with rhLYPLA1, 3% (inactive) with rhLYPLA2 and 14% (inactive) with emLYPLA1.
Consider `O=C(O)c1ccc2c(c1)C(=O)N(CCCCCCCN1C(=O)c3ccc(C(=O)O)cc3C1=O)C2=O`, for which the inhibition was 3% (inactive) in the assay on emLYPLA2, 65% in the assay on rhLYPLA1, 0% (inactive) in the assay on rhLYPLA2 and 23% (inactive) in the assay with emLYPLA1.
The matching figures for `COc1cccc(N=C2NC(=O)/C(=C/c3cc([N+](=O)[O-])ccc3O)S2)c1`: 6% (inactive), 0% (inactive), 0% (inactive) and 20% (inactive).
Take `Cc1nn(-c2ccccc2)c(N2CCCC2)c1/C=N/Nc1ccc(S(N)(=O)=O)cc1[N+](=O)[O-]`: the inhibition with emLYPLA2 is 1% (inactive); in the assay on rhLYPLA1 it was 7% (inactive); in the assay with rhLYPLA2 it was 0% (inactive); in the assay with emLYPLA1, 0% (inactive).
Take `O=C(COc1ccc(Br)cc1)N1CCN(c2ccc([N+](=O)[O-])c(N3CCCCC3)c2)CC1`: the inhibition with emLYPLA2 was 3% (inactive); with rhLYPLA1, 45%; with rhLYPLA2 it was 7% (inactive); in the assay with emLYPLA1 it was 0% (inactive).
Turning to `Cc1ccc(OCC(=O)N2CCN(c3ccc([N+](=O)[O-])c(N4CCOCC4)c3)CC2)cc1`, the inhibition in the assay with emLYPLA2 is 0% (inactive); in the assay on rhLYPLA1 it was 10% (inactive); in the assay on rhLYPLA2, 0% (inactive); in the assay on emLYPLA1, 0% (inactive).
As to `COc1cc(COc2ccc3c(C)c(Cc4ccccc4)c(=O)oc3c2)cc(OC)c1OC`, the inhibition with emLYPLA2 was 4% (inactive); in the assay on rhLYPLA1, 0% (inactive); with rhLYPLA2, 0% (inactive); with emLYPLA1 it was 0% (inactive).
With `Cc1c(Br)c([N+](=O)[O-])nn1CC(=O)Nc1ccc(Cc2ccncc2)cc1`, the inhibition in the assay with emLYPLA2 is 8% (inactive); with rhLYPLA1, 0% (inactive); in the assay with rhLYPLA2, 0% (inactive); in the assay on emLYPLA1 it was 8% (inactive).
For the molecule `CC1CCc2c(sc(NC(=O)CN3CCN(C(=O)c4ccco4)CC3)c2C#N)C1` (centres undefined), the inhibition in the assay on emLYPLA2 was 0% (inactive); in the assay on rhLYPLA1, 16% (inactive); in the assay with rhLYPLA2, 0% (inactive); in the assay with emLYPLA1, 3% (inactive).
Consider `COc1ccc(-n2c(C)c([N+](=O)[O-])c3ccc(O)c(CN4CCCCC4)c32)cc1`, for which the inhibition in the assay with emLYPLA2 is 0% (inactive); in the assay on rhLYPLA1, 21% (inactive); in the assay on rhLYPLA2, 0% (inactive); with emLYPLA1 it was 0% (inactive).
`O=C(CN1CCN(C(=O)c2ccccc2)CC1)Nc1cc(S(=O)(=O)N2CCCC2)ccc1Cl`: the inhibition is 14% (inactive) in the assay with emLYPLA2, 55% in the assay on rhLYPLA1, 3% (inactive) with rhLYPLA2 and 21% (inactive) in the assay on emLYPLA1.
Regarding `COc1ccc(OCC(O)CN2CCC(CN3C(=O)c4cccc5cccc(c45)C3=O)CC2)cc1` (centres undefined), the inhibition in the assay on emLYPLA2 is 16% (inactive); with rhLYPLA1, 0% (inactive); in the assay with rhLYPLA2, 9% (inactive); with emLYPLA1 it was 0% (inactive).
With `COc1ccc(-n2nc(C(=O)NCC(=O)N3CCN(c4cccc(Cl)c4)CC3)c3ccccc3c2=O)c(OC)c1`, the inhibition in the assay with emLYPLA2 is 83%; in the assay with rhLYPLA1, 0% (inactive); with rhLYPLA2 it was 61%; in the assay on emLYPLA1, 16% (inactive).
Consider `CCC(=O)N1CCN(c2ccc(NC(=S)NC(=O)c3cccc([N+](=O)[O-])c3)cc2)CC1`, for which the inhibition was 6% (inactive) with emLYPLA2, 0% (inactive) in the assay on rhLYPLA1, 5% (inactive) in the assay with rhLYPLA2 and 8% (inactive) with emLYPLA1.
Turning to `CCOc1cc(CN2CCCC(C(=O)c3cccc(C(F)(F)F)c3)C2)ccc1O` (centres undefined), the inhibition is 0% (inactive) in the assay with emLYPLA2, 2% (inactive) in the assay with rhLYPLA1, 0% (inactive) in the assay with rhLYPLA2 and 0% (inactive) with emLYPLA1.
Consider `Clc1cccc(N2CCN(CCNc3nc4ccccc4n4cnnc34)CC2)c1`, for which the inhibition was 0% (inactive) with emLYPLA2, 0% (inactive) in the assay with rhLYPLA1, 0% (inactive) with rhLYPLA2 and 1% (inactive) in the assay with emLYPLA1.
Consider `C/C(=C\c1ccccc1)CN1CCN(c2cccc(Cl)c2)CC1`, for which the inhibition in the assay with emLYPLA2, in the assay with rhLYPLA1, in the assay with rhLYPLA2 and with emLYPLA1 was 0% (inactive) each time.
Regarding `CC1CN(Cc2cc(=O)oc3cc(O)c(Cl)cc23)CC(C)O1` (centres undefined), the inhibition in the assay on emLYPLA2 is 0% (inactive); with rhLYPLA1, 0% (inactive); in the assay with rhLYPLA2 it was 3% (inactive); in the assay on emLYPLA1 it was 0% (inactive).
Take `O=C(c1ccc2n[nH]nc2c1)N1CCN(c2ccc(C(F)(F)F)cn2)CC1`: the inhibition with emLYPLA2 was 57%; in the assay on rhLYPLA1 it was 70%; with rhLYPLA2, 32%; in the assay with emLYPLA1, 90%.
Take `N#Cc1ccccc1OCCCN1CCC(Cc2ccccc2)CC1`: the inhibition was 9% (inactive) with emLYPLA2, 21% (inactive) with rhLYPLA1, 0% (inactive) in the assay with rhLYPLA2 and 11% (inactive) with emLYPLA1.

In general, inhibition refers to the change of the read-out against control, counted positive when it falls.
